# What was measured:
# Design in all cases: dose 25 mg/kg
# Plasma [1] = assay: Metabolic stability in Wistar rat plasma assessed as dehydro-alpha-lapachone level at 25 mg/kg after 1.5 hrs; assay type: ADME, organism-based; conditions: in vivo
# Plasma [2] = assay: Metabolic stability in Wistar rat plasma assessed as alpha-lapachone level at 25 mg/kg after 3 hrs; assay type: ADME, organism-based; conditions: in vivo
# [3] = Plasma concentration in Wistar rat at 25 mg/kg after 1.5 hrs; assay type: ADME, organism-based
# Rattus norvegicus = assay: Toxicity in Wistar rat at 25 mg/kg; assay type: organism-based; conditions: in vivo
# Plasma [4] = assay: Metabolic stability in Wistar rat plasma assessed as alpha-lapachone level at 25 mg/kg after 12 hrs; assay type: ADME, organism-based; conditions: in vivo
# [5] = Plasma concentration in Wistar rat at 25 mg/kg after 12 hrs; assay type: ADME, organism-based
# Plasma [6] = assay: Metabolic stability in Wistar rat plasma assessed as alpha-lapachone level at 25 mg/kg after 1.5 hrs; assay type: ADME, organism-based; conditions: in vivo
smiles,measurement,setting,value
CC(C)=CCC1=C(O)C(=O)c2ccccc2C1=O [LAPACHOL],Drug metabolism,Plasma [1],0.6 µg/mL
same,Drug metabolism,Plasma [2],6 µg/mL
same,concentration at 1.5 h,[3],37000 ng/mL
same,Activity,Rattus norvegicus,Non-toxic
same,Drug metabolism,Plasma [4],0.7 µg/mL
same,concentration at 12 h,[5],2000 ng/mL
same,Drug metabolism,Plasma [6],1.4 µg/mL
